The record followed here is patent publication EP3031809A1, “2-phenyl-7,7a-dihydro-3aH-pyran[3,4-d]oxazol-6(4H)-ones” (CONSEJO SUPERIOR DE INVESTIGACIONES CIENTIFICAS, priority 2014, dated 2016).

The structures appear in SMILES notation.

Data set [1] relates to BT-474. Description: Cell viability (cytotoxicity) assay with MTT. The data set is classed as cell-based. Conditions: for TOXICITY 1uM BT-474 (% viab. approx .): approximate viability percentage. The method, then: (§1) In order to determine the toxicity of the compound, cell viability assays were performed with MTT on breast tumour lines MCF-7, BT-474 and MDA-MB-436. […] The fact that cell viability was not affected at a high concentration reflects the low toxicity of the compound at the dose required for its effectiveness in functional assays.

For data set [2], the system named is MCF-7. Kind of data set: Cell viability (cytotoxicity) assay with MTT. Type of data set: cell-based. Conditions: for TOXICITY 1uM MCF-7 (% viab. approx .): approximate viability percentage. As to the method:
as §1

For data set [3], the system named is MCF-7. Description: Sphere test (formation of tumour mammospheres). The data set is classed as cell-based. Also on record: ACTIVITY IN SPHERE TEST % sphere formation MCF-7: concentration or dose not given beside the values. Conditions: for ACTIVITY IN SPHERE TEST % sphere formation MCF-7: MCF-7 mammospheres, 7 days in suspension culture. The text has this: (§2) The formation of spheres derived from breast tumours has been described as an effective method for enrichment of cell cultures in CSCs because of the higher ability of cells derived from these culture in generating tumours in vivo when transplanted in immunocompromised mice (Ponti D, et al., (2005) Cancer Res 65(13):5506-11, 34). A directly proportional relationship is therefore established between the percentage of the CSCs subpopulation in the culture and the ability to form spheres. Tumour cell lines growing in suspension are used in these tests in order to enrich the culture in tumour stem cells. CSCs are the only cells capable of proliferating in these conditions, giving rise to structures named spheres. In fact, the cells that grow in suspension acquire the properties of tumour stem cells and are used in the assays used in this patent for identifying drugs effective against them. In principle, compounds that affect tumour stem cells should slow their growth and potentially cause their death. This assay is tuned for breast cancer cell lines according to Leis, O., et al (2012), Oncogene, 31, 1354-1365. Cells are seeded at a density of 1,000 cells/mL on 6-well plates, previously treated with poly-HEMA (poly(2-hydroxyethyl methacrylate)), Sigma-Aldrich) to prevent the cells adhering to the plastic of the plate. A DMEM high glucose medium supplemented with F12 (Nutrient Mixture F-12 HAM, Sigma), B27 (B27 Supplement 50X, Gibco 17504-044) and growth factors, EGF and bFGF is used for culture. Methylcellulose at a final concentration of 0.5% was added to increase the viscosity of the culture medium. Cells were incubated for 7 days at 37° C, adding growth factors (20 ng/mL of each factor), every two days and counted under a microscope.

In data set [4] the test system is BT474. Kind of data set: Sphere test (formation of tumour mammospheres). As to conditions: for ACTIVITY IN SPHERE TEST % sphere formation BT474: BT474 mammospheres, 7 days in suspension culture. The data set is classed as cell-based. The arrangement: ACTIVITY IN SPHERE TEST % sphere formation BT474: concentration or dose not given beside the values.
From the text: as §2

Data set [5] concerns SOX-2. Description: Reporter of the promoter region of enhancer R1 of SOX-2 in a transiently transfected breast tumour line. The data set is classed as cell-based. As to conditions: breast tumour line MDA_MB-436 / HRE9X-LUC; cells cultivated in suspension; Fig. 2. The source says: In order to identify whether the direct inhibitors of mammosphere formation and HIF activity inhibited the transcriptional activation of SOX2, reported in breast cancer CSCs (Leis, O., et al (2012), Oncogene, 31, 1354-1365), breast tumour lines were constructed, transiently transfected with the promoter region of enhancer R1 of SOX-2 by Lipofectamine (Invitrogen) according to the manufacturer's instructions. Their induction on cultivating the cells in suspension was compared and the inhibition of this activation was measured on treating the cells with the inhibitor IQM11PS04.

In data set [6] the test system is MDA-MB-436. Description: Cell viability (cytotoxicity) assay with MTT. The data set is classed as cell-based. Conditions: 1µM and tenfold higher dose. The method, then:
as §1

Data set [7] deals with HIF. Description: HRE-LUC test (9XHRE-LUC luciferase reporter of HIF activity in a breast tumour line). As to conditions: for inhibition at 5 µM: Homo sapiens, inhibition percentage, read-out: HIF HRE-LUC (% inhib. 5µM). Type of data set: cell-based, human. The text has this: In order to identify direct inhibitors of HIF activity, a breast tumour line MCF7 was first constructed containing the deoxyribonucleic acid sequences (DNA) of the region located between the positions -985 and -951 of the human vascular endothelium growth factor (hVEGF), repeated nine times (X9) and fused to the luciferase reporter gene (LUC) (Moreno-Manzano V, et al (2010) JBC 285 (2) 1333-1342). This plasmid called 9XHRE-LUC, kindly given by Dr Manuel Ortiz de Landazuri of the La Princesa Hospital of Madrid, was prepared using a commercial kit (Endofree Maxi-Prep; Qiagen, Inc., Valencia, CA). Transfections were performed with Lipofectamine (Invitrogen) according to the manufacturer's instructions.
A general note: A reporter such as luciferase makes a cellular process visible.

Data set [8] deals with MDA-MB-436. Description: Sphere test (formation of tumour mammospheres). The data set is classed as cell-based. Conditions: for ACTIVITY IN SPHERE TEST % sphere formation MDA-MB-436: MDA-MB-436 mammospheres, 7 days in suspension culture.
From the text: as §2

For `COc1cccc(C2=NC3COC(=O)CC3O2)c1` (stereo not shown) [IQM11PS01, 2-(3-methoxyphenyl)-7,7a-dihydro-3aH-pyrano[3,4-d]oxazole-6(4H)-one], the “TOXICITY 1uM BT-474 (% viab. approx .)” value in data set [1] is given as 97%. Also, the “TOXICITY 1uM MCF-7 (% viab. approx .)” value in data set [2] was determined as 115%. In addition, in data set [3], the “ACTIVITY IN SPHERE TEST % sphere formation MCF-7” value was determined as 0%. Moreover, the “ACTIVITY IN SPHERE TEST % sphere formation BT474” value in data set [4] is on record as 2%.
On to `CCCOc1cccc(C2=NC3COC(=O)CC3O2)c1` (stereo not shown) [IQM11PS04, 2-(3-propoxyphenyl)-7,7a-dihydro-3aH-pyrano[3,4-d] oxazole-6(4H)-one], for which the “inhibition of the induction of SOX2 (expression of the promoter region of enhancer R1 of SOX-2)” value in data set [5] is on record as “significantly inhibits”. In addition, the “percentage of cell death in treated cultures” value in data set [1] (1µM and tenfold higher dose, BT-474) is “did not cause a significant increase”; in data set [6] it was “did not cause a significant increase”; in data set [2] (1µM and tenfold higher dose, MCF-7), “did not cause a significant increase”. Besides, in data set [1], the “TOXICITY 1uM BT-474 (% viab. approx .)” value was 89%. For the same compound, the “TOXICITY 1uM MCF-7 (% viab. approx .)” value in data set [2] was 109%. For the same compound, in data set [7] (1µM and tenfold higher dose), the “action on HIF-2α” value was “significant action”. For the same compound, the inhibition at 5 µM in data set [7] is 92%. For the same compound, in data set [7] (increasing concentrations, Fig. 1), the “inhibition in the expression of luciferase (HRE-LUC test)” value is given as “significantly inhibits”. The “inhibitory ability in the formation of mammospheres” value was “significant inhibitory ability” in data set [8] (1 µM added in the final stage of sphere formation, MDA-MB-436, versus DMSO); “significant inhibitory ability” in data set [3] (1 µM added in the final stage of sphere formation, MCF7, versus DMSO); “significant inhibitory ability” in data set [4] (1 µM added in the final stage of sphere formation, BT474, versus DMSO). For the same compound, the “ACTIVITY IN SPHERE TEST % sphere formation MCF-7” value in data set [3] is listed as 0%. The “ACTIVITY IN SPHERE TEST % sphere formation BT474” value in data set [4] was determined as 1%.
`O=C1CC2OC(c3cccc(OCCN4CCOCC4)c3)=NC2CO1` (stereo not shown) [IQM11PS06, 2-(3-(2-morpholinoethoxy)phenyl)-7,7a-dihydro-3aH-pyrano[3,4-d]oxazole-6(4H)-one]: the “TOXICITY 1uM BT-474 (% viab. approx .)” value in data set [1] came to 86%. Also, the “TOXICITY 1uM MCF-7 (% viab. approx .)” value in data set [2] is 97%. Also, in data set [8], the “ACTIVITY IN SPHERE TEST % sphere formation MDA-MB-436” value is on record as 79%. In addition, the “ACTIVITY IN SPHERE TEST % sphere formation MCF-7” value in data set [3] was determined as 20%. In addition, the “ACTIVITY IN SPHERE TEST % sphere formation BT474” value in data set [4] is reported as 27%.
Consider `COc1cc(OC)cc(C2=NC3COC(=O)CC3O2)c1` (stereo not shown) [IQM11PS02, 2-(3,5-dimethoxyphenyl)-7,7a-dihydro-3aH-pyrano[3,4-d]oxazole-6(4H)-one], for which the “TOXICITY 1uM BT-474 (% viab. approx .)” value in data set [1] amounted to 55%. Moreover, in data set [2], the “TOXICITY 1uM MCF-7 (% viab. approx .)” value stood at 99%. The “ACTIVITY IN SPHERE TEST % sphere formation MCF-7” value in data set [3] was 0%. Besides, the “ACTIVITY IN SPHERE TEST % sphere formation BT474” value in data set [4] is recorded as 4%.
For the compound `CCCCCOc1cccc(C2=NC3COC(=O)CC3O2)c1` (stereo not shown) [IQM11PS05, 2-(3-pentyloxyphenyl)-7,7a-dihydro-3aH-pyrano[3,4-d]oxazole-6(4H)-one], in data set [1], the “TOXICITY 1uM BT-474 (% viab. approx .)” value turned out to be 168%. Moreover, in data set [2], the “TOXICITY 1uM MCF-7 (% viab. approx .)” value came to 92%. Besides, the inhibition at 5 µM in data set [7] was 96%. Also, the “ACTIVITY IN SPHERE TEST % sphere formation MCF-7” value in data set [3] is reported as 0%. For the same compound, the “ACTIVITY IN SPHERE TEST % sphere formation BT474” value in data set [4] was 8%.
Take `O=C1CC2OC(c3cc(OCc4ccccc4)cc(OCc4ccccc4)c3)=NC2CO1` (stereo not shown) [IQM11PS03, 2-(3,5-bis(benzyloxy)phenyl)-7,7a-dihydro-3aH-pyrano[3,4-d]oxazole-6(4H)-one]: in data set [1], the “TOXICITY 1uM BT-474 (% viab. approx .)” value came to 97%. In addition, the “TOXICITY 1uM MCF-7 (% viab. approx .)” value in data set [2] is 98%. Further, the “ACTIVITY IN SPHERE TEST % sphere formation MDA-MB-436” value in data set [8] worked out at 88%. In data set [3], the “ACTIVITY IN SPHERE TEST % sphere formation MCF-7” value turned out to be 0%. The “ACTIVITY IN SPHERE TEST % sphere formation BT474” value in data set [4] is listed as 12%.
